This note sets out measurements from PubChem BioAssay (NCI).

What all share (test): NCI-60 cell line screen, 48 h
In experiment [1] the test system is HCC-2998 colon.
Experiment [2] has as its system SW-620 colon.
In experiment [3] the test system is OVCAR-3 ovarian.
For experiment [4], the system named is U251 CNS.
Experiment [5] deals with UO-31 renal.
Experiment [6] concerns T-47D breast.
In experiment [7] the test system is HOP-92 NSCLC.
The test system of experiment [8] is A498 renal.
Experiment [9] relates to OVCAR-4 ovarian.
Experiment [10] deals with A549 NSCLC.

Each structure is given as a SMILES string.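 1) Cells in 96-well plates. 2) Compound, 48 h, 5 concentrations. 3) Linear interpolation between surrounding doses. 4) Unreached endpoint = highest concentration. The concentration for 50% growth inhibition is given as GI50. TGI marks complete inhibition of growth.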

In the case of `O=[N+]([O-])/C=C/c1c(Cl)cccc1Cl`, the TGI in experiment [1] came out at 8.34 µM; in [2] it was 2.18 µM; in experiment [3], 3.28 µM; in [4], 9.27 µM; in experiment [5], 13.3 µM; in [6], 9.39 µM. The TGI in [7] turned out to be 12.2 µM; in experiment [8], 30 µM; in experiment [9] it was 11.4 µM; in experiment [10], 22.6 µM.
On to `O=S(=O)(NC1CCCCC1)c1ccc2c(c1)OCCOCCOCCOCCO2`, for which the TGI in experiment [1], in experiment [2], in experiment [5], in [6], in experiment [8] and in [10] was more than 100 µM throughout.
As to `Cc1ccc(/C=C/c2c(C(=O)/C=C/c3ccccc3)c(C)nc3ccccc23)cc1`, the GI50 in [1] was 1.71 µM; in experiment [2], 1.58 µM; in experiment [3] it was 1.51 µM; in experiment [4], 1.5 µM; in experiment [5] it was 1.26 µM; in experiment [6], 1.28 µM. Moreover, the GI50 is 1.52 µM in [7], 1.75 µM in experiment [8], 2.19 µM in [9] and 2.04 µM in experiment [10]. Moreover, the TGI in [1] was 3.35 µM; in [2], 4.61 µM; in experiment [3] it was 2.88 µM; in [4], 2.87 µM; in experiment [5], 2.52 µM; in experiment [6] it was 4.32 µM. The TGI worked out at 4.34 µM in experiment [7], 3.23 µM in experiment [8], 7.72 µM in [9] and 5.6 µM in experiment [10].
Regarding `COc1ccc2c(c1)/C(=C\c1ccncc1)C(=O)N2`, the GI50 was 19 µM in experiment [1]; 10.4 µM in [2]; 10.4 µM in experiment [3]; 4.32 µM in experiment [4]; 6.73 µM in [5]; 22.3 µM in experiment [6]. The values for the GI50 in [7] and in [10] were 22.4 µM and 17.3 µM, respectively. Also, the TGI is more than 100 µM in [1]; 43.8 µM in experiment [2]; 27.5 µM in experiment [3]; 23.1 µM in experiment [4]; 19.3 µM in experiment [5]; more than 100 µM in [6]. Besides, the TGI in experiment [7] came out at 98 µM; in experiment [10], 46.4 µM.
On to `COc1ccc2c(c1)[n+](=O)c(C(=O)c1cccs1)c(C(F)(F)F)n2[O-]`, for which the GI50 in experiment [1] was 4.72 µM; in [2] it was 8.43 µM; in [3], 2.09 µM; in [4] it was 10.3 µM; in [5], 1.83 µM; in experiment [6], 5.26 µM. In addition, the GI50 in [7] was 7.91 µM; in experiment [9], 16.8 µM; in [10], 7.99 µM. Further, the TGI in [1] is 22.7 µM; in experiment [2], more than 50 µM; in experiment [3] it was 11.3 µM; in [4], more than 50 µM; in experiment [5] it was 17.6 µM; in experiment [6] it was 29.8 µM. Further, the results for the TGI in experiment [7], in experiment [9] and in experiment [10] were 49.5 µM, more than 50 µM and more than 50 µM, respectively.
For `CN(C)C(=O)Nc1nc2cc(Cl)c(Cl)cc2[nH]1`, the GI50 in experiment [1] is 2.5 µM; in experiment [2], 0.476 µM; in [3] it was 0.393 µM; in experiment [4] it was 0.636 µM; in [5] it was 5.53 µM; in experiment [6] it was 0.655 µM. Besides, the GI50 was 16.1 µM in experiment [7], 0.487 µM in experiment [8], 1.61 µM in experiment [9] and 0.704 µM in [10]. In addition, the TGI is more than 47.1 µM in [1]; more than 100 µM in experiment [2]; 1.94 µM in [3]; more than 51.1 µM in experiment [4]; more than 100 µM in experiment [5]; more than 100 µM in [6]. Moreover, the TGI was more than 100 µM in experiment [7], more than 100 µM in experiment [9] and more than 25.4 µM in experiment [10].
Consider `CCOc1ccc2c(-c3ccnc(Nc4cc(OC)cc(C(F)(F)F)c4)n3)cnn2n1`, for which the GI50 in experiment [1] is more than 25 µM; in experiment [2], 13 µM; in experiment [3], 6.2 µM; in [4], more than 13 µM; in [5] it was more than 25 µM; in experiment [6], 1.26 µM. The GI50 is more than 25 µM in experiment [8], more than 15.8 µM in [9] and more than 14.7 µM in experiment [10]. Also, the TGI in experiment [1], in [2], in [3], in experiment [4], in experiment [5] and in experiment [6] was more than 25 µM in each case. Further, the TGI in experiment [8], in [9] and in [10] was more than 25 µM each time.
In the case of `CN(C)Cc1ccc(-c2cc3onc(-c4ccccc4)c3c(=O)n2C)cc1`, the TGI is 65.1 µM in experiment [2]; more than 100 µM in experiment [3]; 64.8 µM in experiment [4]; 26.6 µM in [5]; 58.4 µM in [6]; 87.6 µM in [7]. The TGI in experiment [8] was 56.9 µM; in [9] it was more than 100 µM; in [10], 36.9 µM.
For `CNC(=O)NCC1OC(n2cnc3c(NC(=O)Nc4ccccc4)ncnc32)C(O[Si](C)(C)C(C)(C)C)C1O[Si](C)(C)C(C)(C)C` (centres undefined), the GI50 is 2.02 µM in experiment [1]; 2.6 µM in [3]; 2.96 µM in [4]; 2.5 µM in [5]; 2.87 µM in experiment [6]; 1.56 µM in [7]. For the same molecule, the GI50 in [8] was 2.03 µM; in [9] it was 3.44 µM; in experiment [10], 2.9 µM. Also, the TGI in experiment [1] amounted to 3.75 µM; in [3], 5.54 µM; in experiment [4] it was 10.8 µM; in experiment [5], 9.56 µM; in experiment [6], 10.3 µM; in [7], 5.16 µM. Also, the TGI in [8] was 4.96 µM; in experiment [9], 43.9 µM; in [10], 12.8 µM.
